# Measured values published in PMC3003444 (Chemistry & biology, 2010).
# Where two headings read alike, the source gives them in different places. Marks after values point to notes of the source that are not given here.
# Columns and labels:
# [1] = test system: Lactobacillus plantarum; assay: microbe, parasite or virus in culture; format: cell-based; conditions: Lactiplantibacillus plantarum
# [2] = test system: Lactobacillales; assay: organism not typed; format: cell-based
# [3] = test system: Chlamydia trachomatis; assay: microbe, parasite or virus in culture; format: cell-based
# [4] = test system: Streptococcus pyogenes; assay: microbe, parasite or virus in culture; format: cell-based
# [5] = test system: Corynebacterium glutamicum; assay: microbe, parasite or virus in culture; format: cell-based
# [6] = test system: Clostridium difficile; assay: microbe, parasite or virus in culture; format: cell-based; conditions: Clostridioides difficile
# [7] = test system: E. coli strains harboring the indicated amino acid at SPase residue 84
# [8] = test system: Streptococcus agalactiae; assay: microbe, parasite or virus in culture; format: cell-based
# [9] = test system: Brevibacillus brevis; assay: microbe, parasite or virus in culture; format: cell-based
# [10] = test system: Streptococcus pneumoniae; assay: microbe, parasite or virus in culture; format: cell-based
# [11] = test system: Prevotella copris; assay: microbe, parasite or virus in culture; format: cell-based
# [12] = test system: Staphylococcus epidermidis; assay: microbe, parasite or virus in culture; format: cell-based
# [13] = test system: Staphylococcus aureus; format: cell-based; conditions: S. aureus mutant, Pro^29 replaced by Ser
# [14] = test system: Clostridium bolteae; assay: microbe, parasite or virus in culture; format: cell-based; conditions: Enterocloster bolteae
# [15] = test system: Corynebacterium efficiens; assay: microbe, parasite or virus in culture; format: cell-based
# [16] = test system: Enterococcus faecalis; conditions: cited from earlier work
# [17] = test system: E. coli strains harboring the indicated amino acid at SPase residue 84; assay: MIC for E. coli strains with mutant SPase residue 84; conditions: for MIC: Escherichia coli
# [18] = test system: Lactobacillus acidophilus; assay: microbe, parasite or virus in culture; format: cell-based
# [19] = test system: Helicobacter pylori; assay: microbe, parasite or virus in culture; format: cell-based
# [20] = test system: Escherichia coli; assay: microbe, parasite or virus in culture; format: cell-based
# [21] = test system: Pseudomonas aeruginosa; assay: microbe, parasite or virus in culture; format: cell-based
# [22] = test system: Bacteroides fragilis; assay: microbe, parasite or virus in culture; format: cell-based
# [23] = test system: Lactococcus lactis; format: cell-based
# [24] = test system: Lactobacillus gasseri; assay: microbe, parasite or virus in culture; format: cell-based
# [25] = test system: Rhodococcus opacus; assay: microbe, parasite or virus in culture; format: cell-based
# [26] = test system: Bacillus subtilis; assay: microbe, parasite or virus in culture; format: cell-based
# [27] = test system: Staphylococcus haemolyticus; assay: microbe, parasite or virus in culture; format: cell-based
# [28] = test system: Clostridia and Bacteriodetes; assay: MIC, Clostridia and Bacteriodetes; format: cell-based
# [29] = test system: Clostridium perfringens; assay: microbe, parasite or virus in culture; format: cell-based
# [30] = test system: Yersinia pestis; assay: microbe, parasite or virus in culture; format: cell-based
# [31] = test system: Klebsiella pneumoniae; assay: microbe, parasite or virus in culture; format: cell-based
structure (smiles),measurement,setting,value
CCCCCCCCCCCCCCCC(=O)N(C)[C@H](CO)C(=O)N[C@H](C)C(=O)NCC(=O)N(C)[C@@H]1C(=O)N[C@@H](C)C(=O)N[C@H](C(=O)O)Cc2ccc(O)c(c2)-c2cc1ccc2O [arylomycin C16],MIC,[1],> 128 µg/mL
same,MIC,[2],> 64 µg/mL
same,MIC,[3],6 µg/mL
same,MIC,[4],16 µg/mL
same,MIC,[5],2 µg/mL
same,MIC,[6],> 16 µg/mL
same,decrease of MIC on permeabilizing with polymyxin B nonapeptide,[7],≤ 4 fold
same,MIC,[8],> 128 µg/mL
same,MIC,[9],> 64 µg/mL
same,MIC,[10],16 µg/mL
same,MIC,[11],> 16 µg/mL
same,MIC,[12]; Staphylococcus epidermidis,0.25 µg/mL
same,elevated MIC compared to the wild type strain,"[12]; resistant mutants (remainder), SpsIB Ser to Pro at position 31",greater than 256 fold
same,elevated MIC compared to the wild type strain,"[12]; resistant mutants (~75%), SpsIB Ser to Pro at position 29",32 fold
same,sensitivity of Pro to Ser SPase mutant strain,[13],high degree of sensitivity
same,MIC,[14],> 16 µg/mL
same,MIC,[15],> 64 µg/mL
same,MIC,[16],>64 ^b μg/ml
same,sensitivity of Pro to Ser SPase mutant strain,"[17]; E. coli mutant, Pro^84 replaced by Ser",high degree of sensitivity
same,MIC,[17]; His at SPase residue 84 (temperature sensitive phenotype),4 µg/mL
same,MIC,[17]; Phe at SPase residue 84 (temperature sensitive phenotype),2 µg/mL
same,MIC,"[17]; Pro at SPase residue 84, detection limit 256 μg/ml",> 256 µg/mL
same,MIC,"[17]; read-out: MICs, all of the other amino acids (not Pro) at SPase residue 84",≤ 16 µg/mL
same,MIC,[18],> 128 µg/mL
same,MIC,[19],4 µg/mL
same,MIC,[20],> 128 µg/mL
same,decrease of MIC on permeabilizing with polymyxin B nonapeptide,[21]; P. aeruginosa Pro to Ser mutant,≤ 4 fold
same,sensitivity of Pro to Ser SPase mutant strain,"[21]; P. aeruginosa mutant, Pro^84 replaced by Ser",high degree of sensitivity
same,MIC,[21]; Pseudomonas aeruginosa,> 128 µg/mL
same,MIC,[22],> 16 µg/mL
same,MIC,[23],"16, >128 ^a μg/ml"
same,MIC,[24],> 128 µg/mL
same,MIC,[25],2 µg/mL
same,MIC,[26],> 128 µg/mL
same,MIC,[27],2 µg/mL
same,MIC,[28],> 16 µg/mL
same,MIC,[29],> 16 µg/mL
same,MIC,[30],4 µg/mL
same,MIC,[31],> 128 µg/mL
